Source: US20040073961A1, “Nematode screening assay” (priority 2002, published 2004)
Read-outs that look alike come from different tables or passages of the source.

How the values were obtained:
rat I7 OR [1] = molecular target: T1, rat I7 OR (Rattus norvegicus, UniProt P23270); settings: from the literature (Zhao 1998; Araneda 2000); cited from earlier work
T1 sequence (P23270 1-327): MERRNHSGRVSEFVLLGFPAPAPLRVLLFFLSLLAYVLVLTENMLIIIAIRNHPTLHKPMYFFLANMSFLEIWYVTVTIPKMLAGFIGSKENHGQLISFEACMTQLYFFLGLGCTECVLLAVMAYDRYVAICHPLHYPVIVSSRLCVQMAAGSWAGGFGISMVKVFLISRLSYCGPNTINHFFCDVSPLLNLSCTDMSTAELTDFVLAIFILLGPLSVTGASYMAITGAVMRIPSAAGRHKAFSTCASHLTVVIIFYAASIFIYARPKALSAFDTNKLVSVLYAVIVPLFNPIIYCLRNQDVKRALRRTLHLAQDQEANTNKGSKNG

wild-type C. elegans [2] = settings: known from the literature, cited from earlier work
rat I7 OR [3] = molecular target: T1, rat I7 OR; assay: Population chemotaxis assay for volatile substances, Str-1::I7 transgenic worms (I7 expressed in AWB neurons); format: in vivo, C. elegans; design: expressed in transfected cells; host or cells: transgenic C. elegans; AWB neurons (str-1 promoter) or AWA neurons (odr-10 promoter)
Description: (§1) (Bargmann, C. I., Hartwieg, E., and Horvitz, H. R. (1993) Cell 74, 515-527). One microliter of odorant and one microliter 1 M sodium azide were added at one end of the dish (zone 1), and one microliter of solvent (ethanol) and one microliter 1 M sodium azide were added at the opposite end (zone 6) as a control. Sodium azide was included to anaesthetize animals entering zones 1 and 6.
(§2) Where reported, worms were exposed to a 1:100 dilution of diacetyl, undiluted benzaldehyde, undiluted octanal and 1:5, 1:10, 1:15, 1:25, 1:50, 1:100, and 1:1000 dilutions of octanal (Sigma Chemical Co., St. Louis, Mo.). Population assay data for N2 and transgenic worm lines were compared using the two-tailed t test.
To investigate the possibility to functionally express mammalian ORs in C. elegans, wild-type nematodes were first characterized for their ability to detect and respond to increasing dilutions of volatile chemicals and particularly to octanal, an agonist for the rat I7 OR (FIG. 4B; Zhao, H., Ivic, L., Otaki J. M., Hashimoto, M., Mikoshiba, K., and Firestein, S. (1998) Science 279, […]; Araneda, R. C., Kini, A. D., and Firestein, S. (2000) Nature Neurosci. 12, 1248-1255). […] Higher dilutions of octanal gave chemotaxis indexes close to 0 indicating a neutral response of the wild-type worms to lower concentrations of the odorant. […] As AWB neurons mediate volatile avoidance in C. elegans, it was expected that the expression of the rat I7 OR in AWB neurons and its activation with a 1:10 dilution of octanal would counteract the olfactory attraction to 1:10 octanal observed in wild-type worms. I7 transgenic worms were generated, in which I7 expression was driven by the str-1 promoter, a controlling element exclusively functional in the two AWB neurons (Troemel, E. R., Kimmel, B. E., and Bargmann, C. I. (1997) Cell 91, 161-169). Five independently derived C. elegans transgenic strains expressing I7 were tested (FIG. 5). […]

rat I7 OR [4] = molecular target: T1, rat I7 OR; assay: Population chemotaxis assay for volatile substances, Odr-10::I7 transgenic worms (I7 expressed in AWA neurons); format: in vivo, C. elegans; design: expressed in transfected cells; host or cells: transgenic C. elegans; AWB neurons (str-1 promoter) or AWA neurons (odr-10 promoter)
Description: as §1, §2
AWA neurons mediate chemotaxis to volatile attractants in C. elegans. […] It was expected that the activation of I7 with undiluted octanal in these transgenic worms would counteract the volatile avoidance to undiluted octanal observed in wild-type worms. Chemotaxis assays were performed with four independently derived C. elegans transgenic strains expressing I7 (FIG. 6). […] While most of the wildtype C. elegans were repelled toward zone 6, a significant number of odr-10::I7 transgenic worms was found in the proximity to the odorant source (FIGS. 6B and 3A). In order to investigate the specificity of the decrease in the aversive response of Odr10::I7 transgenic worms to undiluted octanal and to confirm that this decrease was due to the interaction of octanal with I7, chemotaxis assays with Odr-10::I7 transgenic worms were performed in which diacetyl and benzaldehyde were used.

wild-type C. elegans [5] = assay: Population chemotaxis assay for volatile substances, wild-type worms; format: in vivo
Description: FIG. 3A: Chemotaxis assays on adult C. elegans to volatile compounds. […] One microliter of odorant and one microliter 1 M sodium azide were added at zone 1, and one microliter of control solvent and one microliter 1 M sodium azide were added at zone 6.
as §1, §2

[6] = specificity controls: 1:100 dilution of diacetyl, pure benzaldehyde, Str-1::I7 transgenic worms
[7] = specificity controls: diacetyl and benzaldehyde, Odr-10::I7 transgenic worms

| Structure (SMILES) | activity at the I7 receptor (rat I7 OR [1]) | behavioral response of wild-type C. elegans (wild-type C. elegans [2]; pure benzaldehyde) | change of chemotaxis index in relation to control wild-type worms (rat I7 OR [3]; [6]) | change of chemotaxis index in relation to control wild-type worms (rat I7 OR [4]; [7]) | behavioral response of wild-type C. elegans (wild-type C. elegans [2]; 1:100 dilution of diacetyl) | chemotaxis index (wild-type C. elegans [5]; 1:10 dilution of octanal, wild-type worms, scored after 1 hour) | chemotaxis index (wild-type C. elegans [5]; higher dilutions of octanal than 1:10, wild-type worms, neutral response) | chemotaxis index (wild-type C. elegans [5]; undiluted octanal, 1 microliter, wild-type worms, scored after 1 hour, +1.0 total attraction, −1.0 total repulsion) | change of chemotaxis index in relation to control wild-type worms (rat I7 OR [3]; 1:10 octanal, five Str-1::I7 transgenic worm strains, statistically significant) | change of chemotaxis index in relation to control wild-type worms (rat I7 OR [4]; undiluted octanal, four Odr-10::I7 transgenic worm strains, statistically significant) |
| --- | --- | --- | --- | --- | --- | --- | --- | --- | --- | --- |
| O=Cc1ccccc1 [benzaldehyde] | do not activate | induce aversion | did not change | did not change | – | – | – | – | – | – |
| CC(=O)C(C)=O [diacetyl] | – | – | did not change | did not change | induce attraction | – | – | – | – | – |
| CCCCCCCC=O [octanal] | agonist | – | – | – | – | +0.5 | ~0 | −0.6 | decreased dramatically | increased dramatically |
